Reference: article PMC10730852 (Communications Biology, 2023)
Where “and” joins values, the source holds several entries; their conditions need not be identical. Equal values may be shown once. Read-outs that look alike come from different tables or passages of the source. Starred links: 1 amine or outer side, 2 acyl side, 3 side chain; linkers in the order of their positions; H or OH if unused. Positions of bridges follow the written chain, without caps; N, C: chain ends. Non-standard residues stand in square brackets, D forms with d. Residues, ends and D or L forms follow the SMILES beside them. *: point of attachment. X1 = NC1=N[C@@H]([C@H](N[*:1])C(=O)[*:2])C[C@H](O)N1; ΔAla(Z-3-ureido) = NC(=O)N/C=C(\N)C(=O)O; β3hOrn = NCCC[C@H](N)CC(=O)*; Dap = NC[C@H](N)C(=O)O

Columns and labels:
Cph001 [1] = experiment: Coupled enzyme assay and Michaelis-Menten kinetics of Cph001; format: biochemical, Streptosporangium roseum; details: for initial velocity, Figure 3c iv, Triplicate: 20 mM CMN IIA; for phosphorylation by Cph001 in couple enzyme assay: 2 mM antibiotic substrate, ATP as phosphate donor, absorbance at 340 nm; for absorbance at 340 nm, Average of triplicate: 2 mM substrate + ATP
Method: The phosphorylation reaction was measured by a coupled enzyme assay as following. […] The reactions were mixed well in a final volume of 200 μL in 96-well plates. The Cph001 activity was assayed by determining the oxidation of NADH at 340 nm. The reaction buffer and enzyme concentration of the Cph reaction was followed by previous study. The 340 nm absorbance changes were detected at 30 °C for every 1 min at a time in 15 min on an EPOCH Microplate Reader (BioTek). All reactions were carried out in triplicate.
The initial velocity data were plotted against substrate concentrations and fit the Michaelis-Menten equation. The Km and Vmax values were calculated based on the Michaelis-Menten equation. GraphPad Prism was used for statistical data analysis. All reactions were carried out in triplicate.

[2] = tested on: E. coli/pET-22b (Control); experiment: Disk diffusion assay; format: cell-based, E. coli BL21 Rosetta (DE3); details: Escherichia coli, 37 °C, 24 hr, read-out: inhibition zones
Method: The E. coli BL21 Rosetta (DE3) strains containing pET22b, and its carrying cph, cph001, cph002, cph003, aph(3′)-Ia, and mphB plasmids were cultured overnight. The cells, respectively, were then diluted to 0.1 OD600 in molten LB agar with 100 μg/mL ampicillin and 500 μM IPTG for the disk diffusion assay. The cells with ampicillin and IPTG were mixed well with molten LB agar and then poured into 10 cm diameter Petri dishes. […] The Petri dishes were placed in the incubator at 37 °C and the inhibition zones were observed after 24 hr.

E. coli/cph = experiment: Disk diffusion assay; format: cell-based, E. coli BL21 Rosetta (DE3); details: Escherichia coli, 24 h, read-out: inhibition zones
Method: (§1) The E. coli BL21 Rosetta (DE3) strains containing pET22b, and its carrying cph, cph001, cph002, cph003, aph(3′)-Ia, and mphB plasmids were cultured overnight. The cells, respectively, were then diluted to 0.1 OD600 in molten LB agar with 100 μg/mL ampicillin and 500 μM IPTG for the disk diffusion assay. The cells with ampicillin and IPTG were mixed well with molten LB agar and then poured into 10 cm diameter Petri dishes. The 7 mm disks were placed onto the LB agar and gently loaded with varying quantities of CMN IIA, CMN IIB, VIO, Kan, and Ery, ranging from 0 to 200 μg. The Petri dishes were placed in the incubator at 37 °C and the inhibition zones were observed after 24 hr.

E. coli/cph001 = experiment: Disk diffusion assay; format: cell-based, E. coli BL21 Rosetta (DE3)
Method: as §1

Cph001 [3] = target: T1, Cph001 (Streptosporangium roseum, UniProt D2B3F1); experiment: Isothermal titration calorimetry (ITC) analysis of Cph001; format: binding
T1 sequence (D2B3F1 1-286): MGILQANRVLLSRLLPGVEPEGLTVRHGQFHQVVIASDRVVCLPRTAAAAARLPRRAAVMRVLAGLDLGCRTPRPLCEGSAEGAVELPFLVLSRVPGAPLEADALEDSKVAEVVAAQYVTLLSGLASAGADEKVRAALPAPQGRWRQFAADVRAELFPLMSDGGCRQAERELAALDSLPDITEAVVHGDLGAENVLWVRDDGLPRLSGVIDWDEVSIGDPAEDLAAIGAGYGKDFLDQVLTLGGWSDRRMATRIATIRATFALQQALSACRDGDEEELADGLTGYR
From the text: The integrated heat areas constitute a differential binding curve that was fitted with a standard single-site binding model by Origin 7.

[4] = parameters: method as in earlier work; details: ref Antimicrob. Agents Chemother. 60, 4786, 2016 and Antimicrob. Agents Chemother. 62, e01724, 2018, cited from earlier work
[5] = Escherichia coli, 24 h, read-out: inhibition zones

Nc1nc2c(ncn2[C@@H]2O[C@H](COP(=O)(O)OP(=O)(O)OP(=O)(O)O)[C@@H](O)[C@H]2O)c(=O)[nH]1 [GTP]
initial velocity, Figure 3c iv, Triplicate (Cph001 [1]; 0.02 mM GTP): 9.164e-5 and 7.331e-5 and 0.0001283 | initial velocity, Figure 3c iv, Triplicate (Cph001 [1]; 0.05 mM GTP): 9.164e-5 and 0.0001521 and 0.0001466 | initial velocity, Figure 3c iv, Triplicate (Cph001 [1]; 0.1 mM GTP): 0.0002053 and 0.0001576 and 0.0002218 | initial velocity, Figure 3c iv, Triplicate (Cph001 [1]; 0.2 mM GTP): 0.0003519 and 0.0003501 and 0.0003886 | initial velocity, Figure 3c iv, Triplicate (Cph001 [1]; 0.4 mM GTP): 0.0005242 and 0.0006232 and 0.0004326 | initial velocity, Figure 3c iv, Triplicate (Cph001 [1]; 0.6 mM GTP): 0.0006012 and 0.0005554 and 0.000493 | initial velocity, Figure 3c iv, Triplicate (Cph001 [1]; 1 mM GTP): 0.0006525 and 0.0006232 and 0.000592 | initial velocity, Figure 3c iv, Triplicate (Cph001 [1]; 2 mM GTP): 0.0006287 and 0.0006397 and 0.0005095 | kcat, phosphate donor varied (Cph001 [1]; in the presence of saturating CMN IIA (20 mM), mean ± SEM, n = 3): 0.0152 ± 0.00067 s⁻¹ | Km (Cph001 [1]; in the presence of saturating CMN IIA (20 mM), mean ± SEM, n = 3, read-out: apparent Km of the phosphate donor): 180 ± 30 µM

NC[C@H]1O[C@H](O[C@H]2[C@H](O)[C@@H](O[C@H]3O[C@H](CO)[C@@H](O)[C@H](N)[C@H]3O)[C@H](N)C[C@@H]2N)[C@H](O)[C@@H](O)[C@@H]1O [Kan, kanamycin]
phosphorylation by Cph001 in couple enzyme assay (Cph001 [1]): only capable of phosphorylating VIO

NCCC[C@H](N)CC(=O)N[C@H]1CNC(=O)[C@H]([C@H]2C[C@H](O)NC(N)=N2)NC(=O)/C(=C/NC(N)=O)NC(=O)[C@H](CO)NC(=O)[C@H](CO)NC1=O [VIO, viomycin] (β3hOrn-[Dap]SS[ΔAla(Z-3-ureido)][X1]; lactam 1-C)
zone of inhibition at 12.5 µg/disc ([2]; 12.5 μg on disk): 23.5 mm | zone of inhibition at 50 µg/disc ([2]; 50 μg on disk): 27 mm | zone of inhibition at 100 µg/disc ([2]; 100 μg on disk): 29 mm | zone of inhibition at 200 µg/disc ([2]; 200 μg on disk): 30 mm | zone of inhibition at 12.5 µg/disc (E. coli/cph): 8.5 mm | zone of inhibition at 50 µg/disc (E. coli/cph): 10 mm | zone of inhibition at 100 µg/disc (E. coli/cph): 11 mm | zone of inhibition at 200 µg/disc (E. coli/cph): 12 mm | resistance in disk diffusion assay (E. coli/cph001; E. coli harboring cph001): resistant | zone of inhibition at 12.5 µg/disc (E. coli/cph001; [5]): 8 mm | zone of inhibition at 50 µg/disc (E. coli/cph001; [5]): 12 mm | zone of inhibition at 100 µg/disc (E. coli/cph001; [5]): 15 mm | zone of inhibition at 200 µg/disc (E. coli/cph001; [5]): 17.5 mm | phosphorylation by Cph001 in couple enzyme assay (Cph001 [1]): only capable of phosphorylating VIO | absorbance at 340 nm, Average of triplicate (Cph001 [1]; time 00:00:00): 1.495 | absorbance at 340 nm, Average of triplicate (Cph001 [1]; time 00:01:00): 1.515 | absorbance at 340 nm, Average of triplicate (Cph001 [1]; time 00:02:00): 1.474 | absorbance at 340 nm, Average of triplicate (Cph001 [1]; time 00:03:00): 1.3778 | absorbance at 340 nm, Average of triplicate (Cph001 [1]; time 00:04:00): 1.2968 | absorbance at 340 nm, Average of triplicate (Cph001 [1]; time 00:05:00): 1.217 | absorbance at 340 nm, Average of triplicate (Cph001 [1]; time 00:06:00): 1.012 | absorbance at 340 nm, Average of triplicate (Cph001 [1]; time 00:07:00): 0.8175 | absorbance at 340 nm, Average of triplicate (Cph001 [1]; time 00:08:00): 0.6031 | absorbance at 340 nm, Average of triplicate (Cph001 [1]; time 00:09:00): 0.4177 | absorbance at 340 nm, Average of triplicate (Cph001 [1]; time 00:10:00): 0.2691 | absorbance at 340 nm, Average of triplicate (Cph001 [1]; time 00:11:00): 0.254 | absorbance at 340 nm, Average of triplicate (Cph001 [1]; time 00:12:00): 0.2155 | absorbance at 340 nm, Average of triplicate (Cph001 [1]; time 00:13:00): 0.1675 | absorbance at 340 nm, Average of triplicate (Cph001 [1]; time 00:14:00): 0.1401 | absorbance at 340 nm, Average of triplicate (Cph001 [1]; time 00:15:00): 0.1225 | Kd (Cph001 [3]): 4.18 ± 0.68 µM

capreomycin
MIC ([4]; approximate molar equivalent): 1.5 to 4.5 µM | MIC [4]: 1 to 3 µg/mL
